The values below come from PubChem BioAssay (NCI).

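Method: 48-hour compound exposure of cells in 96-well plates, five concentrations, linear interpolation of endpoints. At the GI50, growth is halved. TGI: concentration producing complete growth inhibition.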

Among the test systems are HCT-15 colon; IGROV1 ovarian; MALME-3M melanoma; MOLT-4 leukemia; NCI-H460 lung; NCI/ADR-RES ovarian; SF-295 CNS; SF-539 CNS; SK-MEL-2 melanoma; SNB-19 CNS.
Common to all, as to experiment: DTP human tumour cell line panel, 48 h

As to `COc1ccc(/C=C2\CN(C(=O)CCN3CCC(=NO)CC3)C/C(=C\c3ccc(OC)cc3)C2=O)cc1`, the GI50 in the experiment with HCT-15 colon is 2150 nM; in the experiment with IGROV1 ovarian, 1940 nM; in the experiment with MALME-3M melanoma, 2500 nM; with MOLT-4 leukemia, 2950 nM; in the experiment on NCI-H460 lung, 2630 nM; in the experiment with NCI/ADR-RES ovarian it was 3.72 µM. Also, the GI50 in the experiment with SF-295 CNS is 2770 nM; with SF-539 CNS it was 1710 nM; in the experiment with SK-MEL-2 melanoma, 11.7 µM; with SNB-19 CNS, 2580 nM. The TGI was found to be 5.56 µM with HCT-15 colon; 4.36 µM in the experiment on IGROV1 ovarian; 7.49 µM in the experiment with MALME-3M melanoma; 26.9 µM in the experiment with MOLT-4 leukemia; 6.74 µM with NCI-H460 lung; 20.8 µM in the experiment on NCI/ADR-RES ovarian. Also, the total growth inhibition concentration (TGI) in the experiment with SF-295 CNS was 7.69 µM; with SF-539 CNS it was 3.18 µM; in the experiment on SK-MEL-2 melanoma it was 30.4 µM; in the experiment with SNB-19 CNS, 7.55 µM.

On to `CC(=O)Oc1ccccc1[C@H]1CC(=O)C[C@H](c2ccccc2OC(C)=O)C12C(=O)c1ccccc1C2=O`, for which the TGI in the experiment on HCT-15 colon is greater than 100 µM; with IGROV1 ovarian, greater than 100 µM; in the experiment on MALME-3M melanoma, greater than 100 µM; in the experiment on MOLT-4 leukemia, greater than 100 µM; with NCI-H460 lung, 60.3 µM; in the experiment on NCI/ADR-RES ovarian, greater than 100 µM. Also, the TGI with SF-295 CNS is greater than 100 µM; in the experiment with SK-MEL-2 melanoma, 66.2 µM; with SNB-19 CNS it was greater than 100 µM.

As for `COc1cc(C2CC(c3cccc(Nc4ccncc4)c3)=NN2c2cc(Cl)cc(Cl)c2)cc(OC)c1OC` (stereo not given), the GI50 in the experiment on HCT-15 colon is 1790 nM; in the experiment with IGROV1 ovarian it was 1690 nM; in the experiment on MOLT-4 leukemia it was 1530 nM; in the experiment on NCI-H460 lung, 1730 nM; in the experiment on NCI/ADR-RES ovarian, 1.84 µM; with SF-539 CNS it was 1720 nM. Also, the GI50 with SK-MEL-2 melanoma was 2.05 µM; with SNB-19 CNS, 1610 nM. In addition, the TGI with HCT-15 colon was 3.43 µM; in the experiment on IGROV1 ovarian it was 3.25 µM; with MOLT-4 leukemia, 3.57 µM; in the experiment with NCI-H460 lung it was 3.28 µM; in the experiment on NCI/ADR-RES ovarian, 3.53 µM; in the experiment on SF-539 CNS it was 3.2 µM. Moreover, the values for the total growth inhibition concentration (TGI) with SK-MEL-2 melanoma and in the experiment on SNB-19 CNS were 4.13 µM and 3.02 µM, respectively.

Consider `COc1cc2cc(Oc3ccc(NC(=O)Nc4ccc(F)c(C(F)(F)F)c4)cc3)c(C)nc2cc1OCCN1CCCCC1`, for which the GI50 with NCI-H460 lung was 1890 nM; in the experiment on SF-295 CNS it was 1800 nM; in the experiment on SF-539 CNS it was 1680 nM; with SK-MEL-2 melanoma, 1.84 µM; with SNB-19 CNS, 1760 nM. Besides, the concentration for total growth inhibition (TGI) in the experiment with NCI-H460 lung is 3.6 µM; in the experiment with SF-295 CNS, 3.29 µM; in the experiment on SF-539 CNS it was 3.08 µM; in the experiment on SK-MEL-2 melanoma, 3.45 µM; in the experiment on SNB-19 CNS, 3.29 µM.

On to `O=C(c1ccccc1)c1nn(-c2ccc(Cl)cc2)c2nc3nc(-c4ccccc4)cc(=O)n3nc12`, for which the GI50 in the experiment on HCT-15 colon was 38200 nM; in the experiment with IGROV1 ovarian it was 18300 nM; in the experiment on MALME-3M melanoma, 3080 nM; with MOLT-4 leukemia, 37900 nM; in the experiment on NCI-H460 lung, 39100 nM; in the experiment with NCI/ADR-RES ovarian, 35.5 µM. The GI50 was 23500 nM with SF-295 CNS, 22400 nM in the experiment on SF-539 CNS, 26.3 µM with SK-MEL-2 melanoma and 39900 nM in the experiment on SNB-19 CNS. For the same molecule, the total growth inhibition concentration (TGI) is greater than 100 µM with HCT-15 colon; greater than 100 µM with IGROV1 ovarian; 65.1 µM in the experiment on MALME-3M melanoma; greater than 100 µM in the experiment with MOLT-4 leukemia; greater than 100 µM with NCI-H460 lung; greater than 100 µM in the experiment with NCI/ADR-RES ovarian. Besides, the TGI with SF-295 CNS is 63.1 µM; in the experiment with SF-539 CNS it was 45.4 µM; in the experiment on SK-MEL-2 melanoma it was 70.4 µM; in the experiment with SNB-19 CNS, greater than 100 µM.
